# From patent publication US4072759A, “Novel benzylalcohol derivatives as antidiabetics and cardiotonics” (Tanabe Seiyaku Co., Ltd., priority 1976, dated 1978)
# Experiments:
# [1] = 50 % lethal dose by intravenous injection to mice; conditions: mouse, in vivo
# From the text: Further, the toxicity of the benzylalcohol derivative (I) of the present invention is remarkably low.
# adrenergic β1-receptor [2] = conditions: cited from earlier work
# adrenergic β1-receptor [3] = experiment: increase of cardiac contractile force after injection into femoral vein of dogs; format: in vivo; conditions: injected into femoral vein, 10 μg/kg
# [4] = decrease of blood sugar in mice, oral administration prior to subcutaneous injection of glucose; format: in vivo
# Protocol: For example, when α-(3,4-dimethoxyphenethylaminomethyl)-2-hydroxybenzylalcohol is administered orally to mice at a dose of 10 mg/kg prior to subcutaneous injection of glucose (1 g/kg), said 2-hydroxybenzylalcohol derivative of the invention decreases the blood sugar level by about 30 %. On the other hand, when examined under the same conditions as above, 100 mg/kg of Phenformin (Chemical name: 1-phenethylbiguanide) are required to induce 13 % decrease in said blood sugar.
# adrenergic β1-receptor [5] = experiment: cardiac contractile activity (general statement)
smiles,measurement,setting,value
"COc1ccc(CCNCC(O)c2ccc(O)cc2)cc1OC (stereo not drawn) [α-(3,4-dimethoxyphenethylaminomethyl)-4-hydroxybenzylalcohol]",LD50,[1],~198 mg/kg
"COc1cc(CCNCC(O)c2ccc(O)c(O)c2)cc(OC)c1OC (stereo not drawn) [α-(3,4,5-trimethoxyphenethylaminomethyl)-3,4-dihydroxybenzylalcohol]",activation of adrenergic β1-receptor,adrenergic β1-receptor [2],selective activation of adrenergic β1 -receptor
"COc1ccc(CCNCC(O)c2cccc(O)c2)cc1OC (stereo not drawn) [α-(3,4-dimethoxyphenethylaminomethyl)-3-hydroxybenzylalcohol]",increase the cardiac contractile force,adrenergic β1-receptor [3],55%
"COc1ccc(CCNCC(O)c2ccc(O)c(O)c2)cc1OC (stereo not drawn) [α-(3,4-dimethoxyphenethylaminomethyl)-3,4-dihydroxybenzylalcohol]",activation of adrenergic β1-receptor,adrenergic β1-receptor [2],selective activation of adrenergic β1 -receptor
"N=C(N)NC(=N)NCCc1ccccc1 [Phenformin, 1-phenethylbiguanide, reference compound]",decrease in blood sugar,"[4]; mice, same conditions, 100 mg/kg",13%
"COc1ccc(CCNCC(O)c2ccccc2O)cc1OC (stereo not drawn) [α-(3,4-dimethoxyphenethylaminomethyl)-2-hydroxybenzylalcohol]",cardiac contractile activity,adrenergic β1-receptor [5],no substantial cardiac contractile activity
same,decreases the blood sugar level,"[4]; mice, oral, 10 mg/kg, prior to subcutaneous glucose (1 g/kg)",about 30%
same,decrease of blood sugar (in words),"[4]; mouse, in vivo",remarkable decrease of blood sugar
